# What was measured:
# [1] = tested on: serum cholesterol level; experiment: Inhibition effect on serum cholesterol level in hamster with dietary hyperlipemia; format: in vivo; conditions: Golden hamster, 2% cholesterol feed for 3 days; 30 mg/kg orally once a day
# Method: Inhibition effect on serum cholesterol level in hamster with dietary hyperlipemia
# Golden hamster (SLC, male, age of 6 weeks) was made free access to feed containing 2% cholesterol for 3 days. Each test compound was suspended in olive oil and orally administered once a day in a dose of 30 mg/kg during the feeding. (A: Test Group administered with the test compound, B: Control Group administered with olive oil only). In Group C, feed free from cholesterol was fed for 3 days. On the fourth day, blood sample was collected from the descending aorta under pentobarbital anesthesia and cholesterol level in serum was determined. The total cholesterol level in serum of each group was determined and the inhibition rate for the test compound was calculated according to the following equation. [formula]
# [2] = tested on: male ddy strain mice; experiment: Test for acute toxicity (minimum lethal dose, oral); format: in vivo; conditions: mortality observed seven days after administration
# Method: Groups of 3 male ddy strain mice weighing 20±1 g were used. The test compounds were orally administered. Seven days after administration, the mortality was observed and the minimum lethal dose (MLD) was determined.
# [3] = tested on: acyl coenzyme A: cholesterol acyltransferase (ACAT); experiment: Test for ACAT inhibitory activity (microsome fraction prepared from rabbit liver); format: biochemical; conditions: 10^-6 M, 37° C., 10 minutes
# Method: Test for ACAT inhibitory activity The test for ACAT inhibitory activity was performed by a modified method of the method of Brecher et al. Biochim. Biophys. […] The radioactivity of the cholesterol ester spot was determined by a liquid scintillation counter. The radio-activity for each test compound was calculated by the difference between the radioactivity with the microsome fraction and the radioactivity without the microsome fraction. The radioactivity of control was determined in a similar manner without any test compound.
Compound,Inhibition Rate (%) of total cholesterol level in serum [1] [%],"Acute Toxicity (MLD), minimum lethal dose [2] [mg/kg]",Inhibiting rate(%) of ACAT [3] [%]
"Cc1cc(Br)c2c(c1)C(C(=O)Nc1c(C(C)C)cccc1C(C)C)c1ccccc1CO2 (stereo not drawn) [Compound 21, 4-Bromo-6,11-dihydro-N-(2,6-diisopropylphenyl) -2-methyldibenz[b,e]oxepin-11-carboxamide]",67,,
"CC(C)c1cccc(C(C)C)c1NC(=O)C1c2ccccc2COc2ccc(C(F)(F)F)cc21 (stereo not drawn) [Compound 20, 6,11-Dihydro-N-(2,6-diisopropylphenyl) -2-trifluoromethyldibenz[b,e]oxepin-11-carboxamide]",63,> 300,84
"CC(C)c1cccc(C(C)C)c1NC(=O)C1c2ccccc2CSc2ccc(Br)cc21 (stereo not drawn) [Compound 32, 2-Bromo-6,11-dihydro-N-(2,6-diisopropylphenyl)dibenzo[b,e]-thiepin-11-carboxamide]",67,> 300,88
"Cc1ccc2c(c1)C(C(=O)Nc1c(C(C)C)cccc1C(C)C)c1ccccc1CO2 (stereo not drawn) [Compound 4, 6,11-Dihydro-N-(2,6-diisopropylphenyl)-2-methyldibenz[b,e]-oxepin-11-carboxamide]",70,> 300,98
"CC(C)c1cccc(C(C)C)c1NC(=O)C1c2ccccc2COc2ccc(Br)cc21 (stereo not drawn) [Compound 18, 2-Bromo-6,11-dihydro-N-(2,6-diisopropylphenyl)dibenz[b,e]-oxepin-11-carboxamide]",114,> 300,100
"CCc1cccc(CC)c1NC(=O)C1c2ccccc2COc2ccc(Br)cc21 (stereo not drawn) [Compound 27, 2-Bromo-N-(2,6-diethylphenyl)-6,11-dihydrodibenz[b,e]oxepin-11-carboxamide]",,> 300,80
"CC(C)c1cccc(C(C)C)c1NC(=O)C1c2ccccc2COc2ccc(F)cc21 (stereo not drawn) [Compound 16, 2-Fluoro-6,11-dihydro-N-(2,6-diisopropylphenyl)dibenz[b,e]-oxepin-11-carboxamide]",,> 300,81
"CC(C)c1cccc(C(C)C)c1NC(=O)C1c2ccccc2COc2ccc(Cl)cc21 (stereo not drawn) [Compound 17, 2-Chloro-6,11-dihydro-N-(2,6-diisopropylphenyl)dibenz[b,e]-oxepin-11-carboxamide]",,> 300,94
"CC(C)c1cccc(C(C)C)c1NC(=O)C1c2ccccc2COc2cc(Br)ccc21 (stereo not drawn) [Compound 29, 3-Bromo-6,11-dihydro-N-(2,6-diisopropylphenyl)dibenz[b,e]-oxepin-11-carboxamide]",,> 300,86
